Experimental data published in paper PMC5607274, “An iterative compound screening contest method for identifying target protein inhibitors using the tyrosine-protein kinase Yes” (Scientific Reports, 2017).

How the values were obtained:
[1] = molecular target: T1, human recombinant Yes [a.a. 2–543 (end)] (Homo sapiens, UniProt P07947); assay: ADP-Glo kinase assay, inhibition rates of Yes phosphorylation activity (first and second screening); assay type: biochemical; details: 10 μmol L−1 compound; for First screening IR (inhibition rate): mean of n = 4 wells; for Second screening IR (inhibition rate): dissolved from fresh powder, n = 4
T1 construct: human recombinant Yes [a.a; 2–543 (end)]; purchased BPS Bioscience 40488
Summary of the method: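 Hits from a first pass were rescreened after re-dissolution from fresh powder. The first pass reported the mean inhibition rate of quadruplicate wells per compound. Activity was that of recombinant human Yes [a.a. 2–543] kinase, read out with the ADP-Glo ADP-detection method.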

[2] = molecular target: T1, human recombinant Yes [a.a. 2–543 (end)]; assay: ADP-Glo kinase assay, IC50 determination (dose-response curves) for Yes; assay type: biochemical; details: for IC50: 5.5-nmol L−1 Yes, 0.013-mmol L−1 ATP, 0.2-mg mL−1 substrate (poly Glu-Tyr, 4:1); for dose-response relationship (DRR): IC50 determination; for "inhibition activity" in the whole range of concentrations: dose-response test, no DRR
Description: All inhibitory assays of the phosphorylation activity of Yes were performed in accordance with the Promega Technical Manual for the ADP-Glo™ Kinase Assay (Fitchburg, WI, USA. Catalog number: V9102). The human recombinant Yes [a.a. 2–543 (end)] was purchased from BPS Bioscience (catalog number: 40488). The details of the assay protocol and reagent information are given elsewhere.
The screening was conducted in three steps consisting of the first screening, the second screening, and the IC50 determination, as can be illustrated in Fig. 1b. First, we determined the inhibition rates of the 1,991 compounds. Each compound was placed in 4 wells of a 384-well plate. In total, 80 compounds were assayed on one plate and the other wells were used for positive and negative controls. The compounds were randomly placed on plates so that compounds proposed by one group were not placed on a plate together. A mean of four inhibition rates for each compound was compared to criteria for the first screening. […] Second, the inhibition rates of the screened compounds were determined on one plate using the same procedure of the first screening, where compounds were dissolved from fresh powder. […] Screened compounds were then evaluated for their IC50 values. […]
determine their IC50 values. Each dose-response curve was initially built using 8-point, 2-fold serial dilutions starting at 100 μmol L−1, with each concentration point in 4 […]
Assay was carried out under the same conditions as the primary screening, in summary, the final reagent concentrations were 5.5-nmol L−1 Ye s , 0.013-mmol L−1 ATP, and 0.2-mg mL−1 substrate (poly Glu-Tyr peptides, Glu:Tyr=4:1).
The curves were analyzed by GraphPad Prism (sigmoidal fit with variable slope). IC50 […]
standard deviations of the measurements.

T1 sequence (P07947 2-543): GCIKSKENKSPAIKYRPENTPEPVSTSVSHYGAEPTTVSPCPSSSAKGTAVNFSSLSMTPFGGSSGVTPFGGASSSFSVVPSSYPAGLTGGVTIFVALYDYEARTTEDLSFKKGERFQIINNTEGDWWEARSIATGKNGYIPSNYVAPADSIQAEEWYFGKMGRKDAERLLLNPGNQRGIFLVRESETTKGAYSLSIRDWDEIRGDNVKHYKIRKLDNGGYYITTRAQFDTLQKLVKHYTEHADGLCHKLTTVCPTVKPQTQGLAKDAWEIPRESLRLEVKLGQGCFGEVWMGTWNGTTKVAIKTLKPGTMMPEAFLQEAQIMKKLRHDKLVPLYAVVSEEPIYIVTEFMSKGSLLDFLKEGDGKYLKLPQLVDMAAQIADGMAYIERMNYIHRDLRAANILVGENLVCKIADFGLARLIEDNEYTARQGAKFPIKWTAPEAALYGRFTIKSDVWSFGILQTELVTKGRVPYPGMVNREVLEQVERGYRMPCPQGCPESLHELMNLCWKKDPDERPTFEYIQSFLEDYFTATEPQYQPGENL

Row | Compound | First screening IR (inhibition rate) [1] | Second screening IR (inhibition rate) [1] | IC50 [2] | dose-response relationship (DRR) [2] | "inhibition activity" in the whole range of concentrations [2]
1 | Cc1cc(N2CCc3c(ncn3C3CC3)C2)c2cc(OC(F)F)ccc2n1 [Compound Z1252403274] | 72% | 50% | 20 µM | good DRR | –
2 | CC(=O)Nc1ccc(/C=N/Nc2ncnc3cc(-c4ccc(F)cc4)sc23)cc1 [Compound Z50080181] | 51% | 47% | – | did not reveal a DRR | around 50%
3 | O=C(CSc1ccc2ccccc2n1)Nc1nsc(-c2ccc(Cl)cc2)n1 [Compound Z275023406] | 67% | 64% | 37.4 µM | good DRR | –
4 | COc1ccc(Br)cc1/C=N/Nc1ncnc2nc[nH]c12 [Compound Z57745307] | 62% | 61% | – | did not reveal a DRR | around 50%
